Measurements published in patent US20160367623A1, “AGONISTS OF GUANYLATE CYCLASE USEFUL FOR THE TREATMENT OF GASTROINTESTINAL DISORDERS, INFLAMMATION, CANCER AND OTHER DISORDERS” (priority 2015, published 2016).
Bridge positions count the residues as written; N and C are the ends. Ends that are not written are not given here.

Tested on: patients with chronic idiopathic constipation (CIC)
Experiment: Second phase 3 CIC trial: change from baseline in stool consistency (BSFS)
Assay type: in vivo, human
[1] = 6 mg, Week 9, ITT Population-Excluding Duplicate Patients
[2] = 6 mg, Week 10, All Randomized (includes Duplicate Patients)
[3] = 6 mg, Week 10, ITT Population-Excluding Duplicate Patients
[4] = 6 mg, Week 11, All Randomized (includes Duplicate Patients)
[5] = 6 mg, Week 11, ITT Population-Excluding Duplicate Patients
[6] = 6 mg, Week 12, All Randomized (includes Duplicate Patients)
[7] = 6 mg, Week 12, ITT Population-Excluding Duplicate Patients
[8] = 6 mg, overall average estimate across the 12-week treatment period, All Randomized (includes Duplicate Patients)
[9] = 6 mg, overall average estimate across the 12-week treatment period, ITT Population
[10] = 6 mg, overall average estimate across the 12-week treatment period, ITT Population-Excluding Duplicate Patients

Asn^1-Asp^2-Glu^3-Cys^4-Glu^5-Leu^6-Cys^7-Val^8-Asn^9-Val^10-Ala^11-Cys^12-Thr^13-Gly^14-Cys^15-Leu^16 (NDECELCVNVACTGCL; disulfide 4-12, 7-15) [Plecanatide, uroguanylin analogue, guanylate cyclase-C agonist; (C4:C12, C7:C15) bicycle peptide]
Change from Baseline in Stool Consistency, LS Mean (SE) (6 mg, Week 9, All Randomized (includes Duplicate Patients)): 1.54 (0.073) | Change from Baseline in Stool Consistency, Difference from Placebo (6 mg, Week 9, ITT Population): 0.68 | Change from Baseline in Stool Consistency, LS Mean (SE) (6 mg, Week 9, ITT Population): 1.57 (0.075) | Change from Baseline in Stool Consistency, Mean (SD) (6 mg, Week 9, ITT Population): 1.62 (1.507) | Change from Baseline in Stool Consistency, Difference from Placebo [1]: 0.68 | Change from Baseline in Stool Consistency, LS Mean (SE) [1]: 1.59 (0.075) | Change from Baseline in Stool Consistency, Mean (SD) [1]: 1.63 (1.510) | Change from Baseline in Stool Consistency, Difference from Placebo [2]: 0.62 | Change from Baseline in Stool Consistency, LS Mean (SE) [2]: 1.52 (0.073) | Change from Baseline in Stool Consistency, Difference from Placebo (6 mg, Week 10, ITT Population): 0.62 | Change from Baseline in Stool Consistency, LS Mean (SE) (6 mg, Week 10, ITT Population): 1.55 (0.075) | Change from Baseline in Stool Consistency, Mean (SD) (6 mg, Week 10, ITT Population): 1.59 (1.432) | Change from Baseline in Stool Consistency, Difference from Placebo [3]: 0.63 | Change from Baseline in Stool Consistency, LS Mean (SE) [3]: 1.57 (0.075) | Change from Baseline in Stool Consistency, Mean (SD) [3]: 1.60 (1.437) | Change from Baseline in Stool Consistency, Difference from Placebo [4]: 0.58 | Change from Baseline in Stool Consistency, LS Mean (SE) [4]: 1.50 (0.073) | Change from Baseline in Stool Consistency, Difference from Placebo (6 mg, Week 11, ITT Population): 0.57 | Change from Baseline in Stool Consistency, LS Mean (SE) (6 mg, Week 11, ITT Population): 1.53 (0.075) | Change from Baseline in Stool Consistency, Mean (SD) (6 mg, Week 11, ITT Population): 1.58 (1.499) | Change from Baseline in Stool Consistency, Difference from Placebo [5]: 0.59 | Change from Baseline in Stool Consistency, LS Mean (SE) [5]: 1.55 (0.076) | Change from Baseline in Stool Consistency, Mean (SD) [5]: 1.59 (1.504) | Change from Baseline in Stool Consistency, Difference from Placebo [6]: 0.48 | Change from Baseline in Stool Consistency, LS Mean (SE) [6]: 1.48 (0.074) | Change from Baseline in Stool Consistency, Difference from Placebo (6 mg, Week 12, ITT Population): 0.49 | Change from Baseline in Stool Consistency, LS Mean (SE) (6 mg, Week 12, ITT Population): 1.51 (0.076) | Change from Baseline in Stool Consistency, Mean (SD) (6 mg, Week 12, ITT Population): 1.58 (1.487) | Change from Baseline in Stool Consistency, Difference from Placebo [7]: 0.51 | Change from Baseline in Stool Consistency, LS Mean (SE) [7]: 1.53 (0.076) | Change from Baseline in Stool Consistency, Mean (SD) [7]: 1.59 (1.492) | Change from Baseline in Stool Consistency, Difference from Placebo [8]: 0.63 | Change from Baseline in Stool Consistency, LS Mean (SE) [8]: 1.47 (0.059) | Change from Baseline in Stool Consistency, Difference from Placebo [9]: 0.63 | Change from Baseline in Stool Consistency, LS Mean (SE) [9]: 1.50 (0.061) | Change from Baseline in Stool Consistency, Difference from Placebo [10]: 0.64 | Change from Baseline in Stool Consistency, LS Mean (SE) [10]: 1.52 (0.061) | Change from Baseline in Stool Consistency, Mean (SD) (Active Combined, Post-Treatment Week 13, All Randomized (includes Duplicate Patients)): 1.15 (1.387) | Change from Baseline in Stool Consistency, Mean (SD) (Active Combined, Post-Treatment Week 13, ITT Population): 1.14 (1.392) | Change from Baseline in Stool Consistency, Mean (SD) (Active Combined, Post-Treatment Week 13, ITT Population-Excluding Duplicate Patients): 1.14 (1.397) | Change from Baseline in Stool Consistency, Mean (SD) (Active Combined, Post-Treatment Week 14, All Randomized (includes Duplicate Patients)): 1.12 (1.394) | Change from Baseline in Stool Consistency, Mean (SD) (Active Combined, Post-Treatment Week 14, ITT Population): 1.12 (1.379) | Change from Baseline in Stool Consistency, Mean (SD) (Active Combined, Post-Treatment Week 14, ITT Population-Excluding Duplicate Patients): 1.12 (1.384) | Change from Baseline in Stool Consistency, Mean (SD) (Active Combined, Week 1, All Randomized (includes Duplicate Patients)): 1.41 (1.482) | Change from Baseline in Stool Consistency, Mean (SD) (Active Combined, Week 1, ITT Population): 1.42 (1.490) | Change from Baseline in Stool Consistency, Mean (SD) (Active Combined, Week 1, ITT Population-Excluding Duplicate Patients): 1.43 (1.482) | Change from Baseline in Stool Consistency, Mean (SD) (Active Combined, Week 2, All Randomized (includes Duplicate Patients)): 1.41 (1.563) | Change from Baseline in Stool Consistency, Mean (SD) (Active Combined, Week 2, ITT Population): 1.42 (1.571) | Change from Baseline in Stool Consistency, Mean (SD) (Active Combined, Week 2, ITT Population-Excluding Duplicate Patients): 1.43 (1.570) | Change from Baseline in Stool Consistency, Mean (SD) (Active Combined, Week 3, All Randomized (includes Duplicate Patients)): 1.48 (1.526) | Change from Baseline in Stool Consistency, Mean (SD) (Active Combined, Week 3, ITT Population): 1.49 (1.527) | Change from Baseline in Stool Consistency, Mean (SD) (Active Combined, Week 3, ITT Population-Excluding Duplicate Patients): 1.49 (1.532) | Change from Baseline in Stool Consistency, Mean (SD) (Active Combined, Week 4, ITT Population): 1.48 (1.550) | Change from Baseline in Stool Consistency, Mean (SD) (Active Combined, Week 4, ITT Population-Excluding Duplicate Patients): 1.49 (1.557) | Change from Baseline in Stool Consistency, Mean (SD) (Active Combined, Week 5, ITT Population): 1.63 (1.530) | Change from Baseline in Stool Consistency, Mean (SD) (Active Combined, Week 5, ITT Population-Excluding Duplicate Patients): 1.64 (1.535) | Change from Baseline in Stool Consistency, Mean (SD) (Active Combined, Week 6, ITT Population): 1.62 (1.525) | Change from Baseline in Stool Consistency, Mean (SD) (Active Combined, Week 6, ITT Population-Excluding Duplicate Patients): 1.62 (1.524) | Change from Baseline in Stool Consistency, Mean (SD) (Active Combined, Week 7, ITT Population): 1.57 (1.494) | Change from Baseline in Stool Consistency, Mean (SD) (Active Combined, Week 7, ITT Population-Excluding Duplicate Patients): 1.58 (1.498) | Change from Baseline in Stool Consistency, Mean (SD) (Active Combined, Week 8, ITT Population): 1.62 (1.520) | Change from Baseline in Stool Consistency, Mean (SD) (Active Combined, Week 8, ITT Population-Excluding Duplicate Patients): 1.62 (1.523) | Change from Baseline in Stool Consistency, Mean (SD) (Active Combined, Week 9, ITT Population): 1.65 (1.487) | Change from Baseline in Stool Consistency, Mean (SD) (Active Combined, Week 9, ITT Population-Excluding Duplicate Patients): 1.65 (1.489) | Change from Baseline in Stool Consistency, Mean (SD) (Active Combined, Week 10, ITT Population): 1.62 (1.485) | Change from Baseline in Stool Consistency, Mean (SD) (Active Combined, Week 10, ITT Population-Excluding Duplicate Patients): 1.62 (1.491) | Change from Baseline in Stool Consistency, Mean (SD) (Active Combined, Week 11, ITT Population): 1.58 (1.547) | Change from Baseline in Stool Consistency, Mean (SD) (Active Combined, Week 11, ITT Population-Excluding Duplicate Patients): 1.59 (1.548) | Change from Baseline in Stool Consistency, Mean (SD) (Active Combined, Week 12, ITT Population): 1.64 (1.483) | Change from Baseline in Stool Consistency, Mean (SD) (Active Combined, Week 12, ITT Population-Excluding Duplicate Patients): 1.64 (1.484)
